# Data taken from ChEMBL document CHEMBL3507680, “University of Dundee, Gates Library screen for HepG2 cell viability”.
# Experiment: Human HepG2 cell viability assay in 384 well format
# Assay type: toxicity, cell-based
# Set-up: dose 125 nL, time 70.5 hour; cytotoxicity at 70.5 h: concentration not given beside the values
# Conditions: HepG2 cells, read-out: Inhibition
row,Structure (SMILES),cytotoxicity at 70.5 h
1,CC(C)OCc1ccccc1CNC(=O)C(C)(C)C,0.195%
2,CN(CCOCC1CC1)C(=O)Nc1ccc([S+](C)[O-])c(F)c1 (centres undefined),21.5%
3,CN(CCOCC1CC1)C(=O)Nc1ccc([S+](C)[O-])cc1 (centres undefined),-0.588%
4,COc1cccc(C(=O)NS(=O)(=O)c2cc(Cl)sc2Cl)c1OC(F)F,-7.95%
5,N#CC1(NC(=O)COC(=O)Cc2cc(Cl)c3c(c2)OCCO3)CCCC1,16.4%
6,CC(=O)Nc1ccc(CNCC(O)c2ccc(Cl)cc2)cc1 (centres undefined),-5.19%
7,CC(=O)Nc1ccc(CNCC(O)c2ccc(C)cc2)cc1 (centres undefined),-8.81%
8,CC(Nc1cccc(F)c1C#N)c1cccc(S(N)(=O)=O)c1 (centres undefined),-8.67%
9,COCCCN1Cc2cccc(NC(=O)c3ccccc3Cl)c2C1,12.9%
10,Cc1nc(C)c(C(C)NCc2c(C(C)C)nn(C)c2N(C)C)s1 (centres undefined),-0.665%
11,N#CC1(NC(=O)Cc2cc(Cl)c3c(c2)OCCO3)CCC1,-10.5%
12,CN(Cc1ccccn1)C(=O)C(c1ccccc1)N1CCSCC1 (centres undefined),-7.59%
13,COCCCOc1ccc(C(=O)N(C)Cc2cccc(O)c2)cn1,-8.37%
14,COCCCN(C)c1cc(C(F)(F)F)nc(-c2cccnc2)n1,-5.74%
15,COc1cccc(C2(C(=O)NC3CCc4nccn4C3)CCCC2)c1 (centres undefined),10.9%
16,CN(Cc1cscn1)C(=O)C(c1ccccc1)N1CCSCC1 (centres undefined),21.5%
17,NS(=O)(=O)CCCNC(=O)c1cnc(-c2ccsc2)s1,-6.58%
18,CC(Nc1ccc(C#N)cc1F)c1cccc(S(N)(=O)=O)c1 (centres undefined),16.2%
19,Cc1ccc(F)c(S(=O)(=O)NCCc2nnc[nH]2)c1,15.4%
20,COc1cc(NC(=O)NCc2nccn2C)ccc1Br,-4.24%
21,O=C(O)c1cc(/C=C/c2cccc3ccccc23)ncn1,-7.2%
22,CC(O)CN(C)c1cc(C(F)(F)F)nc(-c2cccnc2)n1 (centres undefined),-3.49%
23,CCN(CC)S(=O)(=O)c1ccc(CNC(=O)N2CCC(C#N)CC2)cc1,-6.61%
24,Cc1cnn(CCNCc2c(C(C)C)nn(C)c2Cl)c1,-2.72%

row,Structure (SMILES),cytotoxicity at 70.5 h
1,COc1ccc(C)cc1CN1CCn2cccc2C1C (centres undefined),-1.19%
2,COc1c(CNC(C)c2sc(C)nc2C)c(C(C)C)nn1C (centres undefined),23.8%
3,COc1ccc(C(C)CCNC2CCN(c3ccccn3)CC2)cc1 (centres undefined),22%
4,COCC1CCCN(c2cncc(OCc3ccccc3)n2)C1 (centres undefined),6.39%
5,Cc1cc(CNS(=O)(=O)CCCC#N)ccc1N(C)C,0.915%
6,c1csc(N2CCN(c3ncnc4sccc34)CC2)n1,-7.71%
7,COc1cc(C(=O)O)ccc1OCC(=O)NCCc1ccccc1,-2.71%
8,CCCN(CC(=O)NC)C(=O)c1ccc(-c2nc(C)cs2)cc1,-10.1%
9,CC(=O)N1CCC(NC(=O)CN2CCCc3c(F)ccc(C)c32)CC1,-4.42%
10,Cc1cc(C)n(C2CN(CCC(N)=O)C2)n1,0.833%
11,COc1ccsc1C(=O)NC1CCN(c2cccc(F)c2)CC1,21.7%
12,CCCn1cc(NC(=O)Nc2ccc(F)c(C(=O)NC)c2)cn1,-4.76%
13,COc1ncnc(N)c1CNCCc1ccc(-n2cccn2)cc1,-1.5%
14,NC(=O)CC1CCN(c2cncc(OCc3ccccc3)n2)CC1,-5.14%
15,NC(=O)CC1CCCN(c2cncc(SCc3ccccc3)n2)C1 (centres undefined),-1.35%
16,CN(C)c1nc(CNC(=O)Nc2cccc([S+](C)[O-])c2)cs1 (centres undefined),-5.56%
17,CCN(CC(=O)N(C)C)C(=O)c1ccc(-c2nc(C)cs2)cc1,-4.36%
18,CCc1nnc(C(C)N2CCN(CCC(=O)NC3CC3)CC2)o1 (centres undefined),22%
19,Cc1c(C(=O)N2CCCN(S(C)(=O)=O)CC2)cnn1C,-3.33%
20,FC(F)(F)c1csc(N2CCN(Cc3ccccn3)CC2)n1,-6.63%
21,CC(O)CN1CCN(Cc2coc(-c3ccccc3)n2)CC1 (centres undefined),-7.79%
22,CCN(CC(=O)NC(C)C)C(=O)c1csc(Cc2ccccc2)n1,-9.03%
23,NC(=O)[C@@H]1Cc2ccccc2CN1CCC(=O)N1CCOCC1,-5.31%
24,OC(CNCCn1cccn1)COc1cccc(C(F)(F)F)c1 (centres undefined),-1.44%

row,Structure (SMILES),cytotoxicity at 70.5 h
1,OC(CNCCn1cccn1)COc1ccc2ccccc2c1 (centres undefined),-0.315%
2,OC(CNCCn1cccn1)COc1ccc(F)cc1 (centres undefined),5.18%
3,O=C(Cc1cccs1)NCC1(O)CCSC1 (centres undefined),-5.51%
4,Cc1cccc(NC(=O)CN(C)C(=O)c2ccc(-n3cccc3)nc2)n1,-4.2%
5,O=C(c1ccco1)N(CC(F)(F)F)C1CCCOC1 (centres undefined),-2.62%
6,O=C(NC1CCC(O)CC1)c1cnc2c(cnn2C2CCCC2)c1 (centres undefined),-0.508%
7,Cc1noc(C)c1CNc1cccc(C(=O)N(C)c2ccccc2)c1,14.2%
8,COCC(C)NC(=O)CN1CCC2(CC1)OCCO2 (centres undefined),-3.81%
9,COC(=O)CN(CC1CCOC1)C1CC1 (centres undefined),-3.42%
10,CCOC(=O)CCCN1CCCC(C(=O)Nc2ccc(Cl)cn2)C1 (centres undefined),15.1%
11,CCC(C)NC(=O)CN1CCC2(CC1)OCCO2 (centres undefined),3.04%
12,O=C(Nc1nccs1)C1CCCN1Cc1ccccn1 (centres undefined),-5.74%
13,CC(C)(O)CN1CCN(C(=O)c2cccn2Cc2cccnc2)CC1,-8.17%
14,Cc1nnc(NC(=O)NCC(C)N2CCOCC2)s1 (centres undefined),-11%
15,CCCn1cc(NC(=O)c2ccc(NC(=O)NC3CC3)cc2)ccc1=O,-10.8%
16,CC(=O)Nc1ccc(CNCc2ccc(CS(C)(=O)=O)cc2)cc1,15.3%
17,O=C(c1sccc1C1CC1)N1CCN(c2ncccn2)CC1,-0.605%
18,CCCn1cc(NC(=O)c2ccncc2)ccc1=O,-8.23%
19,O=C(c1sccc1C1CC1)N1CCN(c2cnccn2)CC1,-11.8%
20,CN(Cc1cccc(C#N)c1)c1ncc(C(N)=O)cc1Cl,-8.78%
21,CCN1CCN(C(C)CNC(=O)Nc2nc3ccccc3s2)CC1 (centres undefined),-7.3%
22,O=C(c1sccc1C1CC1)N1CCCN(c2cccnn2)CC1,-7.16%
23,COC(=O)c1sc2cccc(F)c2c1CNC(=O)C1CCOC1 (centres undefined),-2.33%
24,Cc1csc(C2(NC(=O)CCNC(=O)C(C)(C)C)CCCC2)n1,0.031%

row,Structure (SMILES),cytotoxicity at 70.5 h
1,COC(=O)C1CN(Cc2nc(C(C)(C)C)cs2)C[C@@H](C)O1 (some centres undefined),-7.31%
2,CC(=O)Nc1ccc(CNc2cccc(CS(C)(=O)=O)c2)cc1,-3.91%
3,CCOc1cncc(N2CCN(c3ccccc3O)CC2)n1,13.6%
4,O=C(c1ccc(-n2cccn2)c(F)c1)N1CCCN2CCCC2C1 (centres undefined),-8.24%
5,CC(C)(C)c1cnc(CN2CCC(CO)CC2)o1,-3.87%
6,CCOCC(=O)NC1(c2nc(C)cs2)CCCC1,-2.89%
7,CCc1nc2c(s1)C(N(C)C(C)=O)CCC2 (centres undefined),-7.14%
8,COc1ccc(CCN(C)CCS(=O)(=O)c2ccc(Cl)cc2)cc1OC,-13.8%
9,CCNc1ccnc(CN2CCCC2C(=O)Nc2nccs2)c1 (centres undefined),8.54%
10,O=C(c1ccc(F)c(Br)c1)N1CCCN2CCCC2C1 (centres undefined),-8.34%
11,COc1c(C2CCCN2CC(=O)N2CCCCC2)c(C)nn1C (centres undefined),4.89%
12,CC(C)N(C)C(=O)COc1ccc(-c2noc(C3CCCO3)n2)cc1 (centres undefined),5.4%
13,CC(C)NC(=O)c1cccc(NC(=O)CCCc2nc(C(C)C)no2)c1,5.5%
14,CCN(CC(=O)Nc1cc(Cl)ccc1C)C(=O)c1ccc(=O)[nH]n1,-2.64%
15,CC(Nc1cccc2c1OCCO2)C(=O)NC(N)=O (centres undefined),-2.31%
16,O=C(Nc1ccc2c(ccn2CCN2CCOCC2)c1)c1ccccn1,-3.62%
17,CCc1nc(C(=O)N(CC)CC(=O)N(C)C)nn1-c1ccccc1Cl,-2.5%
18,COC(=O)CNC(=O)c1scnc1C,-1.16%
19,O=C(COC1CCCC1)NCCc1nc(-c2ccccn2)cs1,-3.01%
20,O=C(NCc1ccc(N2CC=CC2)cc1)Nc1nnc(C2CC2)s1,22.1%
21,CC(C)(C)S(=O)(=O)CCNC(=O)c1ccc2ccccc2c1,0.161%
22,COC(=O)N1CCC(Nc2ccc(Cl)c(C#N)n2)CC1,-0.879%
23,Cc1nn(C)c(Cl)c1C1CCCN1CC(=O)NC1CCCCC1 (centres undefined),5.03%
24,Cc1nn(C)c(C)c1C(=O)NCc1cc(N(C)C)nc2ccccc12,27.3%

row,Structure (SMILES),cytotoxicity at 70.5 h
1,Cn1cc(CC2CC(=O)N(Cc3ccccc3OC(F)F)C2=O)cn1 (centres undefined),-0.223%
2,CN(C(=O)NCC1(CN2CCOCC2)CCCCC1)C1CC1,-4.71%
3,CCOC(=O)CNC(=O)c1scnc1C,-8.4%
4,Cc1n[nH]c(C2CN(C(=O)COCC(F)(F)F)CCO2)n1 (centres undefined),-5.9%
5,CC(CC(=O)N1CCCN(Cc2cscn2)CC1)n1cccc1 (centres undefined),-6.05%
6,Cc1c(C(=O)NC2=NCCS2)cnn1-c1ccc(Br)cc1,-15%
7,O=C(c1ccoc1)N(Cc1cccnc1)C1CC1,-21.3%
8,CC(=O)Nc1nc(CS(=O)(=O)CCCc2ccccc2)cs1,-9.04%
9,O=C(c1cccnc1)N1CCSCC1,-16.5%
10,O=C(NCC(O)COc1ccccc1)Nc1nncs1 (centres undefined),21.4%
11,COc1ccc(OC(F)F)c(NCC(=O)NCC(=O)N2CCCC2)c1,-7.93%
12,COc1ccc(Cl)c(NCC(=O)NCC(=O)N2CCCC2)c1,-18.4%
13,COc1ccc(NCC(=O)NCC(=O)N2CCCC2)c(C(F)(F)F)c1,-2.2%
14,O=C(c1ccoc1)N(Cc1ccncc1)C1CC1,-14%
15,COc1ccc(CNC(=O)CCc2c(C)noc2C)cc1F,-12.8%
16,N#Cc1ccc(C(=O)N(Cc2ccncc2)C2CC2)cc1,-6.43%
17,O=C(NCC1CCC1)c1cccc(CN2CCS(=O)(=O)CC2)c1,-16.2%
18,NC(=O)C1CCN(CCc2ccc(NCc3ccsc3)cc2)CC1,-11.9%
19,CC(C)CC(CCO)CNC(=O)N1CCCC1(C)C (centres undefined),2.81%
20,CCN(C(C)=O)C(c1cccnc1)c1cc(C)cc(C)c1 (centres undefined),6.16%
21,Cn1cnnc1CCNC(=O)c1ccccc1OC1CCC1,7.31%
22,CC(C)CC(CCO)CNC(=O)N1CCC1(C)C (centres undefined),-1.15%
23,CNC(=O)CNCc1c[nH]nc1-c1cc2ccccc2o1,-1.2%
